Tested on: Erysiphe graminis f.sp. hordei
Experiment: Leaf-disc-test, efficacy against Erysiphe graminis f.sp. hordei on barley (Example B-2 c)
Format: in vivo
Details: single active ingredient, curative application 2 days after inoculation, barley leaf segments, infection in control: 68%
Description: A synergistic effect exists whenever the action of an active ingredient combination is greater than the sum of the actions of the individual components. The action to be expected E for a given active ingredient combination obeys the so-called COLBY formula and can be calculated as follows (COLBY, S. R. “Calculating synergistic and antagonistic responses of herbicide combination”. Weeds, Vol. 15, pages 20-22; 1967): According to Colby, the expected (additive) action of active ingredients I+II using p+q ppm of active ingredient is [formula] If the action actually observed (O) is greater than the expected action (E), then the action of the combination is superadditive, i.e. there is a synergistic effect. Efficacy Against Erysiphe graminis f.sp. hordei on Barley c) Leaf-disc-test Barley plants, cv. “Hasso” were cultivated under greenhouse conditions at 20° C. in TKS-1 standard soil for 10 days. Leaf segments with a length of 10 mm were cut out of the primary leaves and were placed with the upper side up in multiple well plates (24 wells per plate). Each well contains 2 ml of 0.2% water agar+35 ppm benzimidazole. The fungicide treatment was carried out 2 days after inoculation (curative-application) by a total volume of 400 μl that were sprayed with an “air brush” on 4 leaf segments meaning 4 replicates. The inoculated leaf segments were incubated for 1 week in an incubation chamber by 18° C., the first two days in the dark, and the five next days by 12 hours light. After the incubation period, the % leaf attack was estimated with the help of a binocular and the % activity was calculated relative to the check.

| Structure (SMILES) | % activity observed (conc. 0.0025 %) [%] | % activity observed (conc. 0.01 %) [%] | % activity observed (conc. 0.025 %) [%] |
| --- | --- | --- | --- |
| CC(C1CC1)C(O)(Cn1cncn1)c1ccc(Cl)cc1 (stereo not drawn) [cyproconazole] | 36 |  |  |
| CC1COC(Cn2cncn2)(c2ccc(Oc3ccc(Cl)cc3)cc2Cl)O1 (stereo not drawn) [difenoconazole] |  | 0 | 41 |

Reference: patent US20020035038A1, “Fungicidal combinations comprising thieno[2,3-d]pyrimidin-4-one” (priority 1998, published 2002)
